According to publication PMC8160210, “Single tryptophan Y160W mutant of homooligomeric E. coli purine nucleoside phosphorylase implies that dimers forming the hexamer are functionally not equivalent” (Scientific Reports, 2021):
Read-outs that look alike come from different tables or passages of the source.

How the values were obtained:
[1] = biological target: T1, WT E. coli PNP (Escherichia coli, UniProt P0ABP8); assay: Inhibition of m^7Guo phosphorolysis; format: biochemical; details: competitive inhibition Eq. (3), m^7Guo as variable substrate, 50 mM phosphate, pH 7.0, 25 °C
T1 construct: made in house
T1 sequence (P0ABP8 2-239 limits assumed): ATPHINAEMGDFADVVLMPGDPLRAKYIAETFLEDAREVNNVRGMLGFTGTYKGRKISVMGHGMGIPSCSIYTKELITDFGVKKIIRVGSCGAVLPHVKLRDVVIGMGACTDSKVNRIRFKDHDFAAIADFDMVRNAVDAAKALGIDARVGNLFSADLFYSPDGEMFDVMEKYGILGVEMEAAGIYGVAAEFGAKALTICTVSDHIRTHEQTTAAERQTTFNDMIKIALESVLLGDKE
Method: All activity measurements and kinetic studies were done in 50 mM Hepes/HCl buffer pH 7.0 at 25 °C as previously described for the WT E. coli PNP and its active-site mutants, using direct spectrophotometric assay for adenosine, guanosine and 7-methylguanosine as substrates, and a coupled assay with xanthine oxidase in the case of inosine[13],[28],[29]. Activity measurements were performed for each protein sample, before and after each experiment as a control of the state of the protein.
To determine inhibition model and inhibition constant for formycin A, rate of phosphorolysis with m^7Guo as a variable substrate, at constant, 50 mM, phosphate concentration, was registered in the absence of the inhibitor and in the presence of two different concentrations of formycin. A global fitting to the whole data set was performed, using various models (competitive, uncompetitive, noncompetitive, mixed). As expected for the substrate analogue, competitive model described the data sufficiently well:3 v0c0=Vmax1c0/c0+KM1+ci/Ki where ci is inhibitor concentration. Kinetic data were analysed using the GraphPad Prism program (Intuitive Software for Science, San Diego, CA, USA).

[2] = biological target: T2, Y160W mutant/Pi complex (Escherichia coli, UniProt P0ABP8, Y161W); assay: Calorimetric (ITC) titrations with formycin A; design: species or system E. coli
T2 construct: made in house; host or cells: E. coli DH5α-T1
Method: (§1) The isothermal titration experiments were performed on the MicroCal iTC200 (Malvern) microcalorimeter. […] All experiments were carried out at 25°C. For the WT protein series of three calorimetric titrations, with protein concentration in the range of 70 to 800 μM, for the Y160W mutant series of four titration with protein concentration in the range of 300 μM to 1.3 mM were performed. Samples of each protein used for these series came from a single preparation. Ligand samples were 8–12 times more concentrated than the protein sample, in order to achieve a diverse ligand/protein molar ratio during titration and thus better explore binding curves. In some ITC experiments, in order to sample the lower plateau region more accurately, several initial points were measured with less ligand volume added at each step than used in the subsequent titration points measurements. An example of the ITC data is shown in the Supplementary Information (Figure S6). Raw thermograms were analysed with NITPIC[43]. Global analysis of titration curves was performed with Sedphat[20],[21].
(§2) Three models were taken into account in analysis of binding curves: model with one (first equation below), two (first two equations) and three binding sites. P+L⇔PLwithKd1PL+L⇔PLLwithKd2PLL+L⇔PLLLwithKd3
(§3) The model with one binding site is based on the assumption that all monomers are equivalent, and there is no cooperation between them. In the model with two binding sites the basic functional unit of the protein is a dimer, possible non-equivalence of binding sites or cooperativity between active sites in the dimer are taken into account (in the case of no cooperativity dissociation constants should be related statistically: Kd2 = 4Kd1), the dimers within hexamer are equivalent. The model with three binding sites is based on the crystallographic structures of binary and ternary complexes of PNP with ligands, where two of the dimers are in the “open-closed” conformation, but the third dimer is symmetrical, in the “open-open” conformation. Thus, active sites in the open conformation belonging to “open-closed” and “open-open” dimer may not be equivalent. This model takes into account possibility of cooperation between all monomers within a hexameric molecule of the protein (in the case of no cooperativity dissociation constants should be related statistically: Kd3 = 9Kd1, Kd2 = 3Kd1).
(§4) Titration series were analysed globally, always starting from the simplest, one-binding-site model. […] For all tested models the Akaike information criterion[23] was also calculated. Generally both criteria used in the discrimination analysis were pointing the same model as best describing the data. The only exception was thermophoretic titration of the WT protein with formycin A, and it is described in details in the Results. Analysed models were fitted to the raw data, whereas graphs presented in this study were prepared from the normalised data and the fitted curves. The parameters of the fit are dissociation constants and responses of the system. Responses are defined as changes in a measured physical quantity related to the formation of subsequent protein–ligand complexes: intrinsic protein fluorescence intensity, fluorescence intensity of the dye, heat and ellipticity for fluorimetric, thermophoretic, calorimetric and CD titrations, respectively. Responses are normalised for the protein concentration present in the titration, thus giving molar coefficients.

[3] = biological target: T3, WT PNP/Pi complex (Escherichia coli, UniProt P0ABP8); assay: Calorimetric (ITC) titrations with formycin A; design: species or system E. coli
T3 construct: made in house
Method: as §1, §2, §3, §4

[4] = biological target: T1, WT E. coli PNP; design: method as in PMID 30337572; details: phosphate as variable substrate, 250 μM m^7Guo, allostery Eq. (2), cited from earlier work

T2 sequence (P0ABP8 2-239 Y161W, one chain of several): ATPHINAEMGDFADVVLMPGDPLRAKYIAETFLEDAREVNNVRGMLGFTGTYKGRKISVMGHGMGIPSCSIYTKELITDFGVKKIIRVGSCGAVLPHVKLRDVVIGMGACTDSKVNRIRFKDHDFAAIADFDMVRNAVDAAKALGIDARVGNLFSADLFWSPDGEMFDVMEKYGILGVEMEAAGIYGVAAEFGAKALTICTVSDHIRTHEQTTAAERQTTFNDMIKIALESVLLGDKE

Nc1ncnc2c([C@@H]3O[C@H](CO)[C@@H](O)[C@H]3O)[nH]nc12 [FA, Formycin A]
Ki [1]: 5.3 ± 0.4 µM | Kd ([2]; Kd1 ± SD, three-binding-site model, 50 mM phosphate, pH 7.6, 25 °C): 6.75 µM | Kd ([2]; Kd3 ± SD, three-binding-site model, 50 mM phosphate, pH 7.6, 25 °C): 655 µM | Kd ([2]; read-out: Kd2 ± SD, three-binding-site model, 50 mM phosphate, pH 7.6, 25 °C): 149 µM | Kd ([3]; Kd1 ± SD, three-binding-site model, 50 mM phosphate, pH 7.6, 25 °C, values to be treated as estimates): 8.9 µM | Kd ([3]; Kd3 ± SD, three-binding-site model, 50 mM phosphate, pH 7.6, 25 °C, values to be treated as estimates): 812 µM | Kd ([3]; read-out: Kd2 ± SD, three-binding-site model, 50 mM phosphate, pH 7.6, 25 °C, values to be treated as estimates): 55 µM

O=P(O)(O)O [Pi, Orthophosphate]
Km ([4]; pH 7.0, 25 °C): 15 ± 4 µM | Vmax ([4]; pH 7.0, 25 °C): 10.8 ± 0.7 U/mg | a (cooperativity coefficient, KM2 = aKM1) [4]: 267 ± 232 | b (cooperativity coefficient, Vmax2 = bVmax1) [4]: 0.76 ± 0.06
